The test system of experiment [1] is model mouse of amyotrophic lateral sclerosis. The settings on record: model mouse of ALS; cited from earlier work.
The conditions of experiment [2]: high-dose administration; cited from earlier work.
The nature of experiment [3]: Clinical test Phase II: blood purine concentration. The class given is in vivo, Human. To be noted: for ATP concentration in blood, change: Week 0 to Week 2; for inosine concentration in blood, change: any groups (Groups A to E). Here is the method: Various purines in peripheral blood were measured according to Reference (1). Briefly, peripheral blood was collected with EDTA, mixed with 500 μL+500 μL ice cold 8% PCA, immediately vortexed for five seconds, and centrifuged at 12,000×g for 10 minutes at 4° C., and the supernatant was stored at −80° C. The sample was dissolve in a gathered state, and 40 μL of 2M K2CO3 in 6 M KOH was added to 650 μL of the solution to precipitate PCA and neutralize the solution at the same time. After this solution was centrifuged at 12,000×g for 10 minutes at 4° C., 160 μL of a mobile phase was added to 40 μL of supernatant and apply to HPLC. The conditions of HPLC were also set according to Reference (1) below. The amounts of purines are expressed in molar quantity contained in 1 L of whole blood.
(§1) The following administration test was conducted for 16 Japanese healthy adult males, one subject in Phase I and 15 subjects which divided into Groups of A to E for each groups 3 subjects in phase II.
(§2) After the end of Phase I, administration was performed to three subjects of each of the groups as follows:
(§3) Group A: febuxostat 20 mg twice a day for 14 days;
(§4) Group B: inosine 500 mg twice a day for 14 days;
(§5) Group C: febuxostat 20 mg+inosine 500 mg twice a day for 14 days;
(§6) Group D: febuxostat 20 mg+inosine 1000 mg twice a day for 14 days; and
(§7) Group E: febuxostat 30 mg twice a day for 14 days.

The nature of experiment [4]: First administration test: serum uric acid value (uricase-peroxidase method). The class given is in vivo, Human. How it is done:
For a clinical chemistry automatic analyzer, a dry clinical chemistry analysis measuring unit manufactured by ARKRAY, Inc. was used, and the serum uric acid value was measured by using the uricase-peroxidase method. A first clinical test was conducted by first administering febuxostat at 40 mg/day (single administration of febuxostat), after a while, additionally administering inosine (combined administration of febuxostat and inosine), and gradually increasing the dosage of inosine from 0.5 to 3 g/day. Meanwhile, blood was collected at the timing shown on the horizontal axis of FIG. 2 to measure the serum uric acid value.

Experiment [5] in a line: Clinical test Phase II: serum uric acid value. The class given is in vivo, Human. How it is done: as §1, §2, §3, §4, §5, §6, §7
Experiment [6] in a line: Clinical test Phase II: urinary uric acid concentration/creatinine concentration. The class given is in vivo, Human. The settings on record: Week 0 to Week 2. How it is done:
Since the urinary uric acid concentration varies with urine volume, a urinary uric acid amount was evaluated by using a urinary uric acid/creatinine value acquired by dividing by urinary creatinine concentration. The measurement method of the uric acid value was the same as Test Example 1.
as §1, §2, §3, §4, §5, §6, §7

The nature of experiment [7]: Clinical test Phase II: urinary purine concentration. The class given is in vivo, Human.
The nature of experiment [8]: Second administration test: serum uric acid value, single and combined administration. In kind it is in vivo, Human. Here is the method:
(1) The subject of administration was the same as Test Example 1.
After a sufficient period had elapsed from completion of Test Example 1, febuxostat was administered again at 40 mg/day to the patient, and the serum uric acid value was measured three days later. Subsequently, febuxostat was discontinued and, after a while, administration of 2 g/day of inosine was started (administered at 1 g each after breakfast and dinner) and was followed by combined use of 2 g/day of inosine and 40 mg of febuxostat (administered at 20 mg each after breakfast and dinner). The serum uric acid value was measured at time points shown on the horizontal axis of FIG. 4.

The conditions of experiment [9]: in vivo; cited from earlier work.
For experiment [10] the following is noted: in vivo; cited from earlier work. The source holds these as a separate data set.
Experiment [11] deals with erythrocytes. To be noted: erythrocytes kept at low temperature for 20 to 30 days, one hour after addition of inosine; cited from earlier work.
The mark [12] stands for this setting: Group A febuxostat 40 mg/day alone.
Where [13] appears, read: febuxostat 60 mg/day single administration.
Where [14] appears, read: Week 0 to Week 2, single administration of febuxostat.
Setting [15] is: Week 0 to Week 2, single administration of inosine.

Structures are written as SMILES.

Regarding `Oc1ncnc2[nH]ncc12` [allopurinol], the “disease progression of amyotrophic lateral sclerosis” value in experiment [1] is listed as “did not inhibit the disease progression”. The “symptoms of chronic stable angina” value in experiment [2] is listed as “suppressed”.

Take `Cc1nc(-c2ccc(OCC(C)C)c(C#N)c2)sc1C(=O)O` [febuxostat]: the “Hx (hypoxanthine) concentration in blood, change” value in [3] (setting [12]) is reported as “unchanged”; in [3] (setting [13]) it was “slight rise”. The results for the “X (xanthine) concentration in blood, change” value in experiment [3] (setting [12]) and in [3] (setting [13]) were “significantly increased” and “rise”, respectively. Besides, the “ATP concentration in blood, change” value is “not changed” in experiment [3] (Group A febuxostat 40 mg/day) and “No certain tendency was observed” in experiment [3] (Group E febuxostat 60 mg/day). In experiment [3], the “inosine concentration in blood, change” value is “no rise”. The “serum uric acid value” stood at 4.7 mg/dL in experiment [4] (febuxostat 40 mg/day single administration, 2014.07.12, 8.4 mg/dL before (2014.07.05)); 4.9 mg/dL in [4] (febuxostat 40 mg/day, 0 g inosine, 2014.08.23); 4.8 mg/dL in experiment [8] (three days from febuxostat 40 mg/day (20150515), 8.2 mg/dL before (20150501)). Further, the “reduction of serum uric acid value” was 3.7 mg/dL in experiment [4] (febuxostat 40 mg/day, previous (first) test); 2.53 mg/dL in [5] (Group A: febuxostat 20 mg twice a day for 14 days); 3.93 mg/dL in experiment [5] (Group E: febuxostat 30 mg twice a day for 14 days); 3.4 mg/dL in [8] (three days from febuxostat 40 mg/day). Also, the “serum uric acid value, lowest observed” value in experiment [5] (Group E: febuxostat 60 mg/day) was “less than 2 mg/dL”. In addition, the “serum uric acid value, lower limit observed” value in experiment [5] (any of the administration examples of 40 mg/day of febuxostat) is no less than 2 mg/dL. Further, in experiment [6] (febuxostat alone (Groups A and E)), the “urinary uric acid/creatinine, change” value was “reduced”. Besides, the figures for the “maximum concentration of urinary X” value in experiment [7] (Group A: febuxostat 20 mg twice a day) and in [7] (Group E: febuxostat 30 mg twice a day) were 556.0 µM and 867.7 µM, respectively. Also, the “urinary Hx, change” value in experiment [7] (setting [14]) is listed as “moderate rise”. In addition, the “urinary X concentration, change” value in [7] (setting [14]) is “significantly increased”. The “suppression by febuxostat of the serum uric acid increasing action of inosine” value in experiment [8] (febuxostat 40 mg/day, remaining share of the increase) turned out to be 22.4%. For the same molecule, in experiment [1], the “disease progression of amyotrophic lateral sclerosis” value is “inhibits disease progression”.

Take `OC[C@H]1O[C@@H](n2cnc3c(O)ncnc32)[C@H](O)[C@@H]1O` [inosine]: the “symptoms of multiple sclerosis” value in experiment [9] was “alleviates symptoms”. Further, in experiment [3] (Group B inosine 1 g/day alone), the “Hx (hypoxanthine) concentration in blood, change” value is given as “neither Hx nor X changed” and the “X (xanthine) concentration in blood, change” value is reported as “neither Hx nor X changed”. In [3] (Group B inosine 1 g/day), the “ATP concentration in blood, change” value is “not changed”. In addition, the “inosine concentration in blood, change” value in experiment [3] is “no rise”. Moreover, the “symptoms of Parkinson's disease” value in experiment [10] is on record as “alleviates symptoms”. Further, the “serum uric acid value, highest observed” value in experiment [5] (Group B: inosine 500 mg twice a day for 14 days) is listed as “up to 8.1 mg/dL”. Further, the “rise of serum uric acid value on average” value in [5] (Group B: inosine 1 g per day, without febuxostat) turned out to be 2.57 mg/dL. For the same molecule, the ATP in erythrocytes entry in experiment [11] is listed as “ATP increased”. In addition, the “urinary uric acid/creatinine, change” value in [6] (Group B inosine alone) is recorded as “significantly increased”. Moreover, the “maximum concentration of urinary X” value in experiment [7] (Group B: inosine 500 mg twice a day) worked out at 61.9 µM. Further, in [7] (setting [15]), the “urinary Hx, change” value is “no rise” and the “urinary X, change” value is “no rise”. The “serum uric acid value” in [8] (inosine 2 g/day (1 g after breakfast and dinner), six days later, 8.3 mg/dL before) was 13.4 mg/dL. In addition, in [8] (inosine 2 g/day alone), the “rise of serum uric acid value” is 5.1 mg/dL. In addition, the “rise of serum uric acid value per 1 g/day administration of inosine” value in experiment [8] (inosine alone) was 2.55 mg/dL.

The values are drawn from patent publication US10682372B2, “Intracellular ATP enhancer” (StaGen Co., Ltd., priority 2015, dated 2020).
